Experimental data from patent publication US20260176289A1, “SMALL MOLECULE INHIBITORS OF KRAS PROTEINS” (Merck Sharp & Dohme LLC, priority 2022, published 2026).

How the values were obtained:
KRAS-WT = KRAS-WT (Homo sapiens, UniProt P01116); assay: SOS-catalyzed nucleotide exchange assay (Procedure A, TR-FRET), KRAS-WT; type: biochemical; details: nucleotide exchange, read-out: KRAS WT GNE IC50
How it was run: (§1)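 RAS (G12C carries C51S/C80L/C118S) loaded with Bodipy-GDP, complexed with Tb-streptavidin; cpd 60 min RT; + SOS/3 mM GTP. G12C 3/40 nM, WT 1/40, NRAS 1.25/40 nM RAS/SOS, 60 min; G12V 1.25/160 nM, 90 min. Normalized to DMSO and saturating inhibitor; 4PL fit.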

[1] = biological target: KRAS-G12C (C51S/C80L/C118S) (Homo sapiens, UniProt P01116, C118S/C51S/C80L/G12C); assay: SOS-catalyzed nucleotide exchange assay (Procedure A, TR-FRET), KRAS-G12C; type: biochemical; details: nucleotide exchange, Procedure A; read-out: KRAS G12C GNE IC50
Chain of KRAS-G12C (C51S/C80L/C118S) (P01116 with tags, fused parts or gaps isoform P01116-2 G12C/C51S/C80L/C118S): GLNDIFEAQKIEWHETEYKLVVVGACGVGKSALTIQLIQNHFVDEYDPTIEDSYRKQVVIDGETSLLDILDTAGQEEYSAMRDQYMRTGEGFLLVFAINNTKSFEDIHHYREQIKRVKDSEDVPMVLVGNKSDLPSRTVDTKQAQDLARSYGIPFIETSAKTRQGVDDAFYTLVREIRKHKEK
Source text: (§2) Procedure for SOS-Catalyzed Nucleotide Exchange Assay for KRAS-WT, G12C/D/V, G13D, HRAS, and NRAS (Procedure A)
(§3) Recombinant KRAS-G12C protein used in this assay has an additional triple mutation (C51S/C80L/C118S). Whereas KRAS-WT, G12D/V, G13D, HRAS and NRAS are in context of their WT protein sequence background. Specifically, the SOS-catalyzed nucleotide exchange assay utilizes a preformed TR-FRET complex containing a specific biotinylated RAS protein (KRAS-WT, G12C/V/D, G13D, HRAS, NRAS; described above) with Bodipy-GDP, and Terbium-streptavidin. Compounds are preincubated with this complex for 60 minutes. Subsequently, recombinant human SOS protein and unlabeled GTP are added to initiate the exchange reaction. Small molecule inhibitors stabilize the Bodipy-GDP complex whereas the untreated protein rapidly exchanges Bodipy-GDP for unlabeled GTP resulting in reduced TR-FRET signal.
(§4) To assemble the preformed TR-FRET complexes, each biotinylated RAS protein is diluted to 2 μM in an EDTA Buffer (20 mM HEPES pH 7.5, 50 mM sodium chloride, 10 mM EDTA, and 0.01% Tween) and incubated at room temperature for one hour. This mixture is then further diluted to 90 nM in an Assay Buffer (20 mM HEPES pH 7.5, 150 mM sodium chloride, 10 mM magnesium chloride, and 0.005% Tween) containing 15 nM of Terbium-Streptavidin (Invitrogen, catalog #PV3577) and 900 nM of Bodipy-GDP (Invitrogen, catalog #G22360) and incubated at room temperature for six hours. It should be noted that this preformed TR-FRET complex for each of the RAS protein were made ahead of time, aliquoted and stored at −80° C. until the day of the experiment.
(§5) Each test compound (10 mM stock in DMSO) is diluted in DMSO to make a final-10-point, 3-fold dilution and is acoustically dispensed into a 384-well assay plate (Corning, catalog #3820) using an Echo 550 (Labcyte). Each well of the assay plate receives 3 μL of a specific 3×RAS preformed TR-FRET complex and 3 μL of Assay Buffer and is incubated at room temperature for 60 minutes (preincubation time). Each well then receives 3 μL of 3×recombinant human SOS protein and GTP (Sigma, G8877) in Assay Buffer and is incubated at room temperature for 30 minutes (G13D), 60 minutes (KRAS WT/G12C/D, H/NRAS) or 90 minutes for G12V. The final reaction in each well of 9 μL consists of 3 mM GTP, specific Ras and SOS proteins in the following concentrations: KRAS-G12C/SOS=3 nM/40 nM, KRAS-WT and G12D/SOS=1 nM/40 nM, KRAS-G12V/SOS=1.25 nM/160 nM. KRAS-G13D/SOS=1.25 nM/0 nM, HRAS and NRAS=1.25 nM/40 nM.
(§6) The time-resolved fluorescence resonance energy transfer (TR-FRET) signal is measured on an Envision (PerkinElmer) plate reader: Excitation filter=340 nm; emission 1=495 nm; emission2=520 nm; dichroic mirror=D400/D505; delay time=[…]. The signal of each well is determined as the ratio of the emission at 520 nm to that at 495 nm. Percent effect of each well is determined after normalization to control wells containing DMSO (no effect) or a saturating concentration of inhibitor (max effect). The apparent effect as a function of compound concentration is fit to a four-parameter logistic equation.

KRAS-G12D = KRAS-G12D (Homo sapiens, UniProt P01116, G12D); assay: SOS-catalyzed nucleotide exchange assay (Procedure A, TR-FRET), KRAS-G12D; type: biochemical; details: nucleotide exchange, read-out: KRAS G12D GNE IC50
Chain of KRAS-G12D (P01116 with tags, fused parts or gaps isoform P01116-2 G12D): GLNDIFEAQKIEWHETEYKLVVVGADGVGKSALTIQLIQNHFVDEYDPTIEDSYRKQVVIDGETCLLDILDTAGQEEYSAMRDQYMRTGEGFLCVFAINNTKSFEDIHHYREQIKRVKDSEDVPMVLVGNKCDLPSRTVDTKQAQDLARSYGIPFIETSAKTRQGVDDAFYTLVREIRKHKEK
How it was run: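 Signal ratio (520/495 nm, excitation 340 nm) reports Bodipy-GDP retention on biotinylated RAS after SOS-catalyzed exchange with 3 mM GTP. SOS was 40 nM, except 160 nM for G12V. Room-temperature exchange lasted 60 min (90 min for G12V), following a 60 min compound preincubation.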

KRAS-G12V = KRAS-G12V (Homo sapiens, UniProt P01116, G12V); assay: SOS-catalyzed nucleotide exchange assay (Procedure A, TR-FRET), KRAS-G12V; type: biochemical; details: nucleotide exchange, read-out: KRAS G12V GNE IC50
Chain of KRAS-G12V (P01116 with tags, fused parts or gaps isoform P01116-2 G12V): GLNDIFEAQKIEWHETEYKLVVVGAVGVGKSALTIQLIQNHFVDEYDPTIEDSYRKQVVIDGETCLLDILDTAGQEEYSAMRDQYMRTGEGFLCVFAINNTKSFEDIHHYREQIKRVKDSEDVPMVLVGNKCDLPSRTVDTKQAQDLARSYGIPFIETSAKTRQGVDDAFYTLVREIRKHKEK
How it was run: as §1

KRAS-G13D = KRAS-G13D (Homo sapiens, UniProt P01116, G13D); assay: SOS-catalyzed nucleotide exchange assay (Procedure A, TR-FRET), KRAS-G13D; type: biochemical; details: nucleotide exchange, Procedure A; read-out: KRAS G13D GNE IC50
Chain of KRAS-G13D (P01116 with tags, fused parts or gaps isoform P01116-2 G13D): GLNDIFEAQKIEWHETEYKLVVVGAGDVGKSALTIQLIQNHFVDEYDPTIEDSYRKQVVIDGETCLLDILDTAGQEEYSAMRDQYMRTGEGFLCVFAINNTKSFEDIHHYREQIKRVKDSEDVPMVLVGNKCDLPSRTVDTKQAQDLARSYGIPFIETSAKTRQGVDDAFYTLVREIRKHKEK
Source text: as §2, §3, §4, §5, §6

AsPC-1 cells = assay: Cellular phospho-ERK assay, AsPC-1 cells (homozygous KRAS-G12D); type: cell-based; details: Homo sapiens, ASPC1, 2 h, 2 hours compound incubation, read-out: AsPC1 pERK IC50
How it was run: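 ERK phosphorylation relative to total ERK is the endpoint, detected by AlphaScreen-based SureFire multiplex following a 2-hour treatment at 37 °C. Compounds are titrated 1:3 over ten points from 30 μM.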

Chain of KRAS-WT (P01116 with tags, fused parts or gaps isoform P01116-2): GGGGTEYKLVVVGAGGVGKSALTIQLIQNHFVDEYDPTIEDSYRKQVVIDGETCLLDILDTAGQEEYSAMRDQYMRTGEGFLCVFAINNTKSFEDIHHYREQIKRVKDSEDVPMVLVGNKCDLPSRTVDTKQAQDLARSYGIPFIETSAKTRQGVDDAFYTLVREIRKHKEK

Compound | IC50 (KRAS-WT) [nM] | IC50 [1] [nM] | IC50 (KRAS-G12D) [nM] | IC50 (KRAS-G12V) [nM] | IC50 (KRAS-G13D) [nM] | IC50 (AsPC-1 cells) [nM]
C#Cc1cccc2[nH]nc(-c3nccc4c3sc3nc(OC[C@@]56CCCN5C[C@H](F)C6)nc(N5CCOC[C@@](C)(O)C5)c34)c12 [Ex-159, (S)-4-(8-(4-ethynyl-1H-indazol-3-yl)-2-(((2R,7aS)-2-fluorotetrahydro-1H-pyrrolizin-7a(5H)-yl)methoxy)pyrido[4′,3′:4,5]thieno[2,3-d]pyrimidin-4-yl)-6-methyl-1,4-oxazepan-6-ol] | 658 | 48.3 | 260 | 118 | 328 | 1170
Cc1cc2[nH]ncc2c(-c2nccc3c2sc2nc(OC[C@@]45CCCN4C[C@H](F)C5)nc(NC4(CO)COC4)c23)c1C(F)(F)F [Ex-185, (3-((2-(((2R,7aS)-2-fluoro-tetrahydro-1H-pyrrolizin-7a(5H)-yl)methoxy)-8-(6-methyl-5-(trifluoromethyl)-1H-indazol-4-yl)pyrido [4′,3′:4,5]thieno[2,3-d]pyr-imidin-4-yl)amino)oxetan-3-yl)methanol] | 1370 | 146 | 482 | 319 | 842 | 4580
Cc1cc2[nH]ncc2c(-c2nccc3c2sc2nc(OC[C@@]45CCCN4C[C@H](F)C5)nc(NC45CC(O)(C4)C5)c23)c1C(F)(F)F [Ex-187, 3-((2-(((2R,7aS)-2-fluoro-tetrahydro-1H-pyrrolizin-7a(5H)-yl)methoxy)-8-(6-methyl-5-(trifluorometh-yl)-1H-indazol-4-yl)pyrido [4′,3′:4,5]thieno[2,3-d]pyrimidin-4-yl)amino)-bicyclo[1.1.1]pentan-1-ol] | 499 | 72.6 | 390 | 170 | 223 | 3570
Cc1cc2[nH]ncc2c(-c2nccc3c2sc2nc(OC[C@@]45CCCN4C[C@H](F)C5)nc(NC4CCOC4)c23)c1C(F)(F)F (stereo partly drawn) [Ex-188, 2-(((2R,7aS)-2-fluoro-tetrahydro-1H-pyrrolizin-7a(5H)-yl)methoxy)-8-(6-methyl-5-(trifluoromethyl)-1H-indazol-4-yl)-N-(tetra-hydrofuran-3-yl)pyrido [4′,3′:4,5]thieno[2,3-d] pyrimidin-4-amine] | 1860 | 562 | 4950 | 753 | 1250 | 3660

Next, values leading:

IC50 (KRAS-WT) [nM] | IC50 [1] [nM] | IC50 (KRAS-G12D) [nM] | IC50 (KRAS-G12V) [nM] | IC50 (KRAS-G13D) [nM] | IC50 (AsPC-1 cells) [nM] | Compound
58.2 | 77.6 | 15.3 | 22.1 | 29.4 | 153 | Cc1cc2[nH]ncc2c(-c2nccc3c2sc2nc(OC[C@@]45CCCN4C[C@H](F)C5)nc(N4CCOC[C@@](C)(O)C4)c23)c1-c1ccco1 [Ex-146, (6S)-4-(2-(((2R, 7aS)-2-fluorotetra-hydro-1H-pyrrol-izin-7a(5H)-yl)meth-oxy)-8-(5-(furan-2-yl)-6-methyl-1H-indazol-4-yl)pyrido [4′,3′:4,5]thieno[2,3-d]pyrimidin-4-yl)-6-methyl-1,4-oxaze-pan-6-ol]
670 | 438 | 284 | 293 | 936 | 1260 | Cc1cc2[nH]ncc2c(-c2nccc3c2sc2nc(OC[C@@]45CCCN4C[C@H](F)C5)nc(N4CCOC[C@@](C)(O)C4)c23)c1C1CCCC1 [Ex-147, (6S)-4-(8-(5-cyclo-pentyl-6-methyl-1H-indazol-4-yl)-2-(((2R,7aS)-2-fluoro-tetrahydro-1H-pyr-rolizin-7a(5H)-yl)-methoxy)pyrido [4′,3′:4,5]thieno[2,3-d]pyrimidin-4-yl)-6-methyl-1,4-oxaze-pan-6-ol]
27.6 | 112 | 6.61 | 9.35 | 20.4 | 91.4 | C[C@@]1(O)COCCN(c2nc(OC[C@@]34CCCN3C[C@H](F)C4)nc3sc4c(-c5c(-c6ccco6)c(Cl)cc6[nH]ncc56)nccc4c23)C1 [Ex-148, (6S)-4-(8-(6-chloro-5-(furan-2-yl)-1H-indazol-4-yl)-2-(((2R,7aS)-2-fluoro-tetrahydro-1H-pyr-rolizin-7a(5H)-yl)-methoxy)pyrido [4′,3′:4,5]thieno[2,3-d]pyrimidin-4-yl)-6-methyl-1,4-oxaze-pan-6-ol]
